Assay results taken from paper PMC11480993, “Combining Data-Driven and Structure-Based Approaches in Designing Dual PARP1-BRD4 Inhibitors for Breast Cancer Treatment” (Journal of Chemical Information and Modeling, 2024).
Where two headings read alike, the source gives them in different places.

Tests used:
[1] = test system: MCF-7 cells; experiment: Cell cycle detection (PI flow cytometry); type: cell-based; details: for cell cycle G0/G1 / cell cycle G2/M / cell cycle S: 24 h
Method: Cell cycle analysis was performed using a PI cell cycle detection kit. Following a 24 h treatment, cells were gathered, fixed with 75% ethanol, and stained with PI according to the manufacturer’s protocol. Subsequently, cell cycle analysis was detected using BD FACSCelesta flow cytometry (New York, USA). The obtained data were then subjected to analysis using FlowJo_V10.

[2] = molecular target: BRD3 (Homo sapiens, UniProt Q15059); experiment: BRD TR-FRET assay, BRD3; type: binding
Method: (§1) The assay was performed by TR-FRET technology using a BRD and its corresponding ligand (BET). The TR-FRET signal from the assay is correlated with the amount of ligand binding to the bromodomain. All of the binding reactions were conducted at room temperature. The 20 μL reaction mixture in Assay Buffer contains either bromodomains, BET Ligand, and the indicated amount of inhibitor. For the negative control (blank), 5 μL of the assay buffer was added instead of the BET ligand. The reaction mixture was incubated for 120 min. After the incubation with the ligand, the TR-FRET signal was measured using a Tecan Infinite M1000 plate reader.

[3] = test system: BRD4; experiment: Western blot, BRD4 expression in MCF-7 cells; type: cell-based; details: MCF-7, 48 h treatment
Method: (§2) Following a 48 h treatment, cellular proteins were extracted using RIPA cell lysis buffer containing protease and phosphatase inhibitor cocktail. The protein concentration was assessed by using a BCA assay. Subsequently, equal amounts of these proteins were loaded onto an SDS-PAGE gel and transferred onto a PVDF membrane. The protein-loaded membrane was then blocked using a commercial blocking solution (Beyotime, China) and sequentially incubated with primary and secondary antibodies. Protein bands were visualized using an ECL chemiluminescence kit and quantified using ImageJ software.

[4] = test system: MDA-MB-436 cells; experiment: Cell viability (MTT), MDA-MB-436; type: cell-based; details: Homo sapiens, MDA-MB-436, 96 h; 4-day treatment, BRCA mutant
Method: (§3) MDA-MB-231, MDA-MB-436, and MCF-7 cells were seeded into 96-well plates with the number of 5 × 10^3 in each cell and allowed to incubate for 24 h. Subsequently, various concentrations of the test compounds (ranging from 100 to 0.78 μM with twice gradient dilution) were introduced. After 4 days of incubation, MTT solution was applied, and the cells were incubated for an additional 4 h. Following the removal of the supernatant, the violet crystals were dissolved in 200 μL of DMSO, and the absorbance was measured at 570 nm.

[5] = test system: CDK6; experiment: Western blot, CDK6 in MCF-7 cells; type: cell-based; details: MCF-7, 48 h
Method: as §2

[6] = test system: L02 (normal human liver cell); experiment: Cytotoxicity against non-tumor cells, L02; type: cell-based; details: 96 h, 4-day treatment
Description: To further establish HF4’s advantage, we employed a web-based in silico cytotoxicity prediction tool (https://www.way2drug.com/clc-pred/index.php), encompassing the prediction against 391 tumor and 47 normal human cell lines,[47] to predict the cytotoxicity of HF4 against nontumor cell lines. […] The absence of nontumor cell lines among the top-ranked ones indicates a limited impact on normal cell line. When threshold of ≥0.15 was applied, among 50 predictions, only a single normal cell line (HEK293) was present in the list, with a predicted probability value below 0.2. We further reinforced the safety profile of HF4 by conducting experimental safety assessments on two normal cell lines. […] In summary, we conducted both computational safety predictions and experimental evaluations on normal cell lines to strengthen the assurance of HF4’s safety profile.
Cytotoxicity of HF4 against non-tumor cells
Figure S6. Cytotoxicity of HF4 against non-tumor cells during a 4-day treatment.
(1 picture or pasted object on this page, not shown here)

[7] = molecular target: BRD1 (Homo sapiens, UniProt O95696); experiment: BRD TR-FRET assay, BRD1; type: binding
Method: as §1

[8] = test system: MDA-MB-231 cells; experiment: Cell viability (MTT), MDA-MB-231; type: cell-based; details: Homo sapiens, MDA-MB-231, 96 h; 4-day treatment, wild-type BRCA
Method: as §3

[9] = test system: cleaved Caspase 3; experiment: Western blot, cleaved Caspase 3 in MCF-7 cells; type: cell-based; details: MCF-7, 48 h, dose-dependent
Method: as §2

[10] = test system: Rad51; experiment: Western blot, Rad51 in MCF-7 cells; type: cell-based; details: MCF-7, 48 h
Method: as §2

[11] = test system: MCF-7 cells; experiment: Alkaline comet assay; type: cell-based; details: 4 and 8 μM, 48 h, MCF-7, compared to control
Method: The Alkaline comet assay was executed in accordance with the manufacturer’s instructions. Following a 48 h treatment period, cells were harvested and combined with low melting point agarose. The resulting mixture was layered onto slides coated with agarose as a normal melting point agarose. Subsequently, the cells on the slides were lysed overnight at 4 °C and then unwound in an alkaline unwinding solution for 30 min at room temperature. Following electrophoresis, the samples were neutralized and stained with propidium iodide. The outcomes were visualized using a confocal microscope (Nikon A1 HD25), with three random images captured from each slide.

[12] = molecular target: PARP1 (Homo sapiens, UniProt P09874); experiment: In vitro PARP1 enzymatic activity (ELISA, biotinylated NAD+, luminescence); type: biochemical
Method: The inhibition of the tested compounds on PARP1 enzymatic activity was determined by ELISA in 96-well plates. Each well was precoated with histone (20 μg/mL) diluted in 100 μL of PBS buffer (10 mM NaH2PO4, 100 mM Na2HPO4, 150 mM NaCl, pH 7.4) by incubation at 4 °C overnight. […] The reaction was initiated by the addition of 20 μL of PARP1 (50 ng/well) at 30 °C for 1 h. Then the reaction solution was added to 50 μL of streptavidin conjugated HRP. The assay was performed at 30 °C for an additional 30 min. Finally, 100 μL of solution (H2O2 and luminol in citrate buffer 0.1 M, pH 5.4) was added and luminescent signal was measured using a multiwell spectrophotometer (Molecular Devices SpectraMax M5 microplate reader).

[13] = test system: MCF-7 cells; experiment: Colony formation assay; type: cell-based; details: seven-day exposure
Method: The cells were placed in a 6-well plate at a density of approximately 500 cells per well and allowed to incubate for 24 h. Subsequently, the cells were exposed to the specified concentrations of test compounds and a control vehicle for a duration of 7 days. Following this treatment period, the cells were fixed using a 4% formaldehyde solution, stained with crystal violet, and then imaged.

Sequence of PARP1 (P09874 whole entry): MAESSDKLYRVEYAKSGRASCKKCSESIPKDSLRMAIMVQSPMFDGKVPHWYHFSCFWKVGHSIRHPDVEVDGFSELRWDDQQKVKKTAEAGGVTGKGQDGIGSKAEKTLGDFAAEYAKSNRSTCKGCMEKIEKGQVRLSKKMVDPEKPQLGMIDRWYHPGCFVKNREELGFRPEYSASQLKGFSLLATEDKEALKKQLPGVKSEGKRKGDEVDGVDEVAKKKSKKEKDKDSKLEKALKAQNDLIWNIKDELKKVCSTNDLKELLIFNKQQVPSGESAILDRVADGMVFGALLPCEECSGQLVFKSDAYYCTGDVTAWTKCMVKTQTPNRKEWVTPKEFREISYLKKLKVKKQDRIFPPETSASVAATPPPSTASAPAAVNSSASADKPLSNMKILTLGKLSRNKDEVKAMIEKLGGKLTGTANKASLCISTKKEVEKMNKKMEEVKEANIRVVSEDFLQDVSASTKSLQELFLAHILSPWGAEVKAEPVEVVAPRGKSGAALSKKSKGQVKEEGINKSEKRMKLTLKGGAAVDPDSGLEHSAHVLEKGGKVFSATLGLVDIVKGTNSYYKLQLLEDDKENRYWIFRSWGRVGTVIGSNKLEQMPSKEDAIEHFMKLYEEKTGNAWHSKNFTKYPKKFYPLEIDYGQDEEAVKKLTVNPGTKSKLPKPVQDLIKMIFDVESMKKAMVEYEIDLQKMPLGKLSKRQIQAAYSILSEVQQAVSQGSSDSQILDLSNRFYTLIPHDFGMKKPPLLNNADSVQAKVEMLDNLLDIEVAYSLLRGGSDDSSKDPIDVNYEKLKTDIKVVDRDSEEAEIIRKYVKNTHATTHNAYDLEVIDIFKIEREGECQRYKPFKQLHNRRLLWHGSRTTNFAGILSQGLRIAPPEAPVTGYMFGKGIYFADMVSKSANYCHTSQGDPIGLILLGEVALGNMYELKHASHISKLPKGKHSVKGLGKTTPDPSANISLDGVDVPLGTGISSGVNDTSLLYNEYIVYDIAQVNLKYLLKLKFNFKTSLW
Sequence of BRD3 (Q15059 whole entry): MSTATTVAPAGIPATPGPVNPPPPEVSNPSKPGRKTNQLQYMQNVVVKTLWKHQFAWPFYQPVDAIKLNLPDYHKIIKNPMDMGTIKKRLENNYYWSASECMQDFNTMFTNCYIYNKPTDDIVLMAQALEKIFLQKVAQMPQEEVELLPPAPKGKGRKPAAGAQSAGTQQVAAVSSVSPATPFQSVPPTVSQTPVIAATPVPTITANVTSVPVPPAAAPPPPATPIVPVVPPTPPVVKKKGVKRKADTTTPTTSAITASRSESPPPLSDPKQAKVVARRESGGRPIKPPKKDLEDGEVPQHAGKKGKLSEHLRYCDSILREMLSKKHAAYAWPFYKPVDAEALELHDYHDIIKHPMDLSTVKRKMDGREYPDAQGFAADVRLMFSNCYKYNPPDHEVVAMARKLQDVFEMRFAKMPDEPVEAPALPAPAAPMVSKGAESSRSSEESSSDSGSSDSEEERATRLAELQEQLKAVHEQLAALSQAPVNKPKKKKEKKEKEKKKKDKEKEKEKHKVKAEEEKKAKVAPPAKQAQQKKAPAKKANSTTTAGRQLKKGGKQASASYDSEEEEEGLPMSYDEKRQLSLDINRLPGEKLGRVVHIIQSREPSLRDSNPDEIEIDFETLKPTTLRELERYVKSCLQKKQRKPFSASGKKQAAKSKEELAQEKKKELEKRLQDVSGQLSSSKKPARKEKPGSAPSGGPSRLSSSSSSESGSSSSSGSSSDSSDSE
Sequence of BRD1 (O95696 whole entry): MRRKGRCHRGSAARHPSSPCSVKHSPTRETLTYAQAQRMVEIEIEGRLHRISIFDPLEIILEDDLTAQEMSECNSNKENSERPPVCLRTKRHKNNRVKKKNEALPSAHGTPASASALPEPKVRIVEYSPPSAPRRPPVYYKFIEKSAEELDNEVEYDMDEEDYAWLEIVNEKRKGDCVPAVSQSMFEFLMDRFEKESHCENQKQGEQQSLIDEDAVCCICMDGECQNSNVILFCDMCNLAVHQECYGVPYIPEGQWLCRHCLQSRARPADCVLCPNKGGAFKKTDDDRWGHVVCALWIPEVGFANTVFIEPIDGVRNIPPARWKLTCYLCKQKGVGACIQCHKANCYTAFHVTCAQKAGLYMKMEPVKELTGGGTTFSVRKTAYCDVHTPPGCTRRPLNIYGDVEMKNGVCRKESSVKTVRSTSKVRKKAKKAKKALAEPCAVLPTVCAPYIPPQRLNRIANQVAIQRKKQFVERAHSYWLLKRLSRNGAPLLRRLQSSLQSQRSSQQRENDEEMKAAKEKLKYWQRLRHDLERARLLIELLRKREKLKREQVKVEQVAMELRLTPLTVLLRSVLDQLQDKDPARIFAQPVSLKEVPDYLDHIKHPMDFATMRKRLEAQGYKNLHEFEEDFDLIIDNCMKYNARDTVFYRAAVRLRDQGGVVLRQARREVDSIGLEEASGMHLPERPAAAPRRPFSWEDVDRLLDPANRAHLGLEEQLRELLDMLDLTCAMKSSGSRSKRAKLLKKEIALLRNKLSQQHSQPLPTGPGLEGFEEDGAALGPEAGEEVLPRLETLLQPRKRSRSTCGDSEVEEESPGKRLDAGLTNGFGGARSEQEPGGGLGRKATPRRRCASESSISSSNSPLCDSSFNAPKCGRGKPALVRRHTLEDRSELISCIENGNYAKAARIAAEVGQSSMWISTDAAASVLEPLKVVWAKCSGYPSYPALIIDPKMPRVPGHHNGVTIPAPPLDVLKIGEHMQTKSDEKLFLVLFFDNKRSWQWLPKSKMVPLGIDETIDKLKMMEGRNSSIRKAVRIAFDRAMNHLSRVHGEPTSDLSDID

CCc1cc2cc(NS(=O)(=O)c3ccc(F)c(C)c3)ccc2[nH]c1=O [HF4, N-(3-ethyl-2-oxo-1,2-dihydroquinolin-6-yl)-4-fluoro-3-methylbenzenesulfonamide]
effect on cell cycle [1]: halted the cell cycle at the G0/G1 phase | cell cycle G0/G1 ([1]; 2 μM): 83.0% | cell cycle G2/M ([1]; 2 μM): 0.51% | cell cycle S ([1]; 2 μM): 17.0% | cell cycle G0/G1 ([1]; 4 μM): 89.0% | cell cycle G2/M ([1]; 4 μM): 2.96% | cell cycle S ([1]; 4 μM): 9.42% | cell cycle G0/G1 ([1]; 8 μM): 92.0% | cell cycle G2/M ([1]; 8 μM): 4.55% | cell cycle S ([1]; 8 μM): 7.63% | IC50 [2]: 4.79 ± 1.36 µM | BRD4 expression [3]: an increase but to a much lesser extent than JQ1 | IC50 [4]: 4.9 µM | CDK6 expression [5]: dose-dependently lowered | IC50 [6]: 26.3 ± 6.2 µM | IC50 [7]: 55.6 ± 13.9 µM | IC50 [8]: 2.2 µM | cleaved Caspase 3 expression [9]: upregulating | expression of Rad51 [10]: significantly reduced | DNA damage (comet tail length, percentage of damaged DNA) [11]: increase in both tail length and the percentage of damaged DNA | IC50 [12]: 2.02 ± 0.683 µM | decrease in effectiveness against PARP1, tricyclic to bicyclic scaffold ([12]; HF4 vs HF1): approximately 20 fold | ligand efficiency index against PARP1 ([12]; pIC50 divided by HAC, HAC = 25): 0.23 | IC50 ([12]; value of the text): ~2 µM | colony formation ([13]; 2 μM): marked decline in colony formation | colony formation ([13]; 8 μM): nearly no visible colonies
